Laboratory results from ChEMBL document CHEMBL6127140, “Bicyclic Ureas as JAK2 Inhibitors for Treating Hematological Cancer” (ACS Med Chem Lett, 2024).
pIC50: −log10 of the molar value.

Assay: Binding affinity to C-terminal his-Avi-tagged human JAK2 JH-2 domain (536 to 812 residues) W659A/W777A/F794H mutant expressed in baculovirus expression system incubated for 1 hr in presence of JAK2 JH2 tracer and ATP by Lanthascreen assay
`COC(=O)N[C@@H]1CC[C@@H](n2c(=O)n(C)c3cnc(Nc4cccc(-c5ccc(OC)nc5)n4)cc32)C1` showed a pIC50 of no less than 8.00. With `COC(=O)N[C@@H]1CC[C@@H](n2c(=O)n(C)c3cnc(Nc4cccc(-c5ccc6c(c5)OCCO6)n4)cc32)C1` the pIC50 was no less than 8.00. Work on `COC(=O)N[C@@H]1CC[C@@H](n2c(=O)n(C)c3cnc(Nc4cc(C)nc(N5CCC(F)(F)C5)n4)cc32)C1` yielded a pIC50 of no less than 8.00. `COC(=O)N[C@@H]1CC[C@@H](n2c(=O)n(C)c3cnc(Nc4ccc(F)c(-c5ccc(C6CC6)cc5)n4)cc32)C1` showed a pIC50 of no less than 8.00. `COC(=O)N[C@@H]1CC[C@@H](n2c(=O)n(C)c3cnc(Nc4cccc(-c5ccc6[nH]nc(C)c6c5)n4)cc32)C1` gave a pIC50 of no less than 8.00. In the case of `COC(=O)N[C@@H]1CC[C@@H](n2c(=O)n(C)c3cnc(Nc4ccnc(N5CCCCC5)n4)cc32)C1`, the pIC50 was no less than 8.00.
